Test results reported in patent US9375438B2, “Inhibitors of NCCa-ATP channels for therapy” (University of Maryland, Baltimore, priority 2007, dated 2016).
“Also recorded” adds a separate entry of the source.

Columns and labels:
[1] = system: recombinant MMP-2 and MMP-9; assay: Zymography, gelatinase activity of recombinant MMP; format: biochemical; details: glibenclamide 10 μM; MMP-inhibitor II 300 nM
Protocol: Zymography of recombinant MMP-2 and MMP-9 (Sigma) was performed as described (Sumii and Lo, 2002).

[2] = system: NCCa-ATP channels in bEnd.3 cells; assay: Perforated-patch whole-cell recording of endothelial cells, Na azide-induced ATP depletion; format: cell-based, murine; details: 1 μM glibenclamide; endothelial cells exposed to hypoxic conditions
Protocol: Patch clamp of endothelial cells was performed using a nystatin-perforated patch technique, to maintain the metabolic integrity of the cells. The identity of the activated channel can be assessed by measurement of the “reversal potential”, the potential at which an ion channel current reverses from inward to outward. With physiologically relevant concentrations of ions intracellularly and extracellularly (high potassium inside, high sodium outside), the reversal potential can unambiguously distinguish between a K^+ channel current such as KATP, which reverses negative to −50 mV and a non-selective cation channel current such as NCCa-ATP, which reverses near 0 mV.
Cell culture. Endothelial cell cultures from human brain microvessels, human aorta (ScienCell Research Laboratories), and murine brain microvessels (bEnd.3; ATCC), were grown at low density using media and supplements recommended by suppliers.

rats with percussion-TBI = assay: Percussion-TBI model: lesion size and hippocampal neurons (Nissl sections); format: in vivo, rat; details: 7 days post-TBI
Text: Young adult male Long-Evans rats, 240-280 gm, were studied. Rats were anesthetized (Ketamine and Xylazine) and physiological parameters including temperature and blood gases were maintained within appropriate physiological ranges. With the head fixed in a stereotaxic frame, a 6-mm circular craniectomy was created abutting the sagittal and lambdoidal sutures. A posterior location was chosen to emphasize damage to underlying hippocampus (Vink et al., 2001; Floyd et al., 2002). […] Sham controls underwent craniectomy without percussion.

[3] = Effect of glibenclamide doses on serum glucose; format: in vivo, rat; details: uninjured rats and rats with stroke and SCI; dose1-dose4

SMILES: COc1ccc(Cl)cc1C(=O)NCCc1ccc(S(=O)(=O)NC(=O)NC2CCCCC2)cc1 [glibenclamide]
- gelatinase activity of recombinant MMP [1]: the same; also recorded: not affected
- block of Na azide-induced ohmic current [2]: blocked
- lesion area on coronal sections at the epicenter of injury (rats with percussion-TBI; 10 rats/group): 4.4±0.8 mm^2
- hippocampus on Nissl stained sections (rats with percussion-TBI; vs vehicle): sparing of hippocampus
- effect of proposed doses on serum glucose [3]: only the highest are hypoglycemogenic, but only mildly so
